According to patent publication US20100010100A1, “DERMATOLOGICAL COMPOSITIONS WITH ANTI-AGING AND SKIN EVEN-TONING PROPERTIES” (priority 2008, published 2010):

Tested on: MelanoDerm™ in vitro skin model (MEL-300B melanoderms)
Test: In vitro skin model test (MelanoDerm skin-lightening, digital image quantification)
Assay type: cell-based
Conditions: for pixel density / lightening: 14 days; for pixel density: pixel content of untreated set at 1.00; for lightening: vs untreated
Description: The skin-lightening effect was validated on the in vitro skin model, the MelanoDerm™ carried out by MatTek using MEL-300B melanoderms. This model is very similar in structure and function to the natural skin and has the cell types relevant in the epidermis including the melanocytes, which are responsible for the synthesis of the main pigment melanin. Further information can be found, for example, in http://www.mattek.com/pages/in_vitro_basics. The study was carried out over a period of 14 days at two concentrations, 10 μM and 60 μM. 1% Kojic acid was the positive standard and untreated as negative control.
Digital image quantification was achieved by subtracting a standard background value from the pixel content of regions of identical size. The pixel content of untreated cells was set at 1.00. Treatment with topical 1% kojic acid as a positive control gave pixel density of 0.96 or 4% lightening. Treatment with Duroquinone gave pixel density of 0.82 or 18% lightening at a concentration of 10 μM and 0.60 or 40% lightening at a concentration of 60 μM. Treatment with 2,5,6-trimethyl-3-(4-(trifluoromethyl)phenyl)cyclohexa-2,5-diene-1,4-dione gave pixel density of […] or 34% lightening at a concentration of 60 μM.

Structure (SMILES) | effectiveness relative to kojic acid positive standard (60 μM vs 1% kojic acid) | pixel density (60 μM) | lightening (60 μM) | effectiveness relative to kojic acid positive standard (10 μM vs 1% kojic acid) | pixel density (10 μM) | lightening (10 μM) | pixel density (topical 1% (positive control)) | lightening (topical 1% (positive control))
CC1=C(C)C(=O)C(c2ccc(C(F)(F)F)cc2)=C(C)C1=O [2,5,6-trimethyl-3-(4-(trifluoromethyl)phenyl)cyclohexa-2,5-diene-1,4-dione] | ten times as effective | 0.69 | 34% |  |  |  |  | 
CC1=C(C)C(=O)C(C)=C(C)C1=O [Duroquinone, 2,3,5,6-tetramethylcyclohexa-2,5-diene-1,4-dione] | ten times as effective | 0.60 | 40% | four and a half times as effective | 0.82 | 18% |  | 
O=c1cc(CO)occ1O [kojic acid, reference compound] |  |  |  |  |  |  | 0.96 | 4%
